Results taken from US20090203877A1, “X-RAY-DENSE CONJUGATE” (Eberhard-Karls-Universitaet Tuebingen Universitaetsklinkum, priority 2006, published 2009).
Entries after “also recorded” stand apart in the source; their conditions may differ.

Tests used:
[1] = cited from earlier work
[2] = system: human malignant U373 glioma cells; experiment: Cell viability / cell death (MTT test, propidium iodide, annexin-V-Alexa 568 binding, FACS scatter morphology); settings: 260 μM in 0.1% DMSO/PBS, 20 min, substance alone
Experimental: Human malignant U373-glioma cells were grown to 70% confluency in RPMI-1640 Ready Mix Medium containing L-Glutamine and 10% FBS-Gold (PAA laboratories, Pasching, Austria) at 37° C., 5% CO2 (vol/vol), in 4-well-plates (NUNC, Wiesbaden, Germany) with about 300,000 cells pro well. […] After this, the cells were washed three times with buffer and then incubated with Ready Mix Medium again. Cell viability was then assessed by the addition of methyl-thiazoyl-tetrazolium (MTT) salt (Sigma-Aldrich, Germany) at a concentration of 15 mg/ml. After 20 minutes, the production of formazan was investigated. When blue formazan granules were detected, propidium iodine (PI) was added to the medium (1 μM PI; Molecular Probes, Eugene, Oreg., USA) to detect cells with damaged cell membranes. […] Pictures were taken with a 3-CCD color video camera (MC3254P, Sony, Japan) and the Axiovision Software (Carl Zeiss, Jena, Germany). The intensity of cell fluorescence was recorded at the exposure time necessary for the production of the fluorescence images.
After imaging, Accutase™ (PAA laboratories, Pasching, Austria) was added to the wells to achieve detachment of the cells for further FACS analysis. Fluorescence was measured in a Becton Dickinson FACSCalibur. A total of 20,000 events per sample were analyzed. The investigations were performed in triplicate.
A sample of cells from each Eppendorf tube was subjected to the MTT test (described under 1.4) to determine microscopically whether the cells were viable. In vitro CT of the cell pellets was performed with a Somatom Sensation 16 (Siemens) which is used for routine clinical investigations.
Cells were incubated for 20 minutes with each of the conjugates dissolved in 0.1% DMSO/PBS at 260 μm. The cells were also incubated with TIBA and both of the non-TIBA-containing conjugates (3 and 4) separately in 0.1% DMSO/OBS at 260 μm. Both TIBA and the conjugates were dissolved in 0.1% DMSO/PBS at 260 μm for incubation due to the insolubility of TIBA (but not the conjugates) in pure PBS. As controls, the cells were incubated with PBS alone, 0.1% DMSO/PBS alone, and TIBA alone (260 μm in 0.1% DMSO/PBS).
The detection of phosphatidyl serine in the outer membrane leaflet of apoptotic cells was performed with the Annexin-V-Alexa™-568-reagent according to manufacturer's protocol (Roche Molecular Biochemicals, Indianapolis, USA). The confocal laser-scanning microscopy was performed on an inverted LSM 510 laser-scanning microscope (Carl Zeiss, Jena, Germany) (objectives: LD Achroplan 40×0.6, Plan Neofluar 20×0.50, 40×0.75). For fluorescence excitation, the 488 nm line of an argon-ion laser and the […] line of a helium-neon laser with appropriate beam splitters and barrier filters were used for FITC and Alexa respectively. Superimposed images of FITC- and Alexa-stained samples were created by overlaying coincident views. All measurements were performed on living, non-fixed cells.
Human malignant LN18 and U373 glioma cells were cultivated in four-well plates (NUNC, Wiesbaden, Germany) (about 300,000 cells per well) as described under 1.5. […] The cells were also coincubated either with CIBA, FIBA or TBPI as well as the NLS-FITC conjugate 3 (each 260 μM). As a control cells were used which were only incubated either with CIBA, FIBA or TBPI (260 μM in PBS) alone. After the incubation the cells were washed three times with PBS and in the following again incubated in Ready Mix Medium. The FITC-labelled conjugates and the Alexa-Annexin for the detection of phosphatidylserine as a signal of the cell death were localized with the confocal laser microscopy (CLSM) as in 1.6.1. All measurements were performed on living cells.

Solubility = format: physicochemical; settings: 260 μM
[3] = system: human malignant U373 glioma cells; experiment: Computer tomography, signal density of cell pellets; format: cell-based; settings: 260 μM, 20 min
Experimental: For CT and FACS human U373 glioma cells were grown under the same conditions in 75 cm^2 culture flasks (Corning Costar, Bodenheim, Germany) (70% confluency). Accutase™ (PAA laboratories, Pasching, Austria) was added to achieve detachment of the cells which were harvested and subsequently aliquoted into Eppendorf tubes (6×10^6 cells per tube). As in the investigations performed by fluorescence microscopy, the cells in the first tube served as a control (PBS only). The cells in the other tubes were incubated with 260 μM Ultravist, 260 μM TIBA in PBS and 26 μM, 260 μM and 2.6 mM conjugates 1-4 in PBS. After a 20 minute incubation period at 37° C. in an atmosphere of 5% CO2, the cells were washed three times in PBS and centrifuged at 800 rpm for 5 minutes.
The inner ear spiral CT protocol consisted of: tube voltage 120 KV, effective mAs 550, time of imaging TI: 1.5, SL 0.75/0.75/4.5, FOV: 50 0/52, kernel: U70, window: intervertebral disc.
3D-images were obtained using InSpace Software (Syngo CT 2006G) (Siemens AG, Erlangen, Germany).
After an incubation of 20 minutes at 37° C./5% CO2 the cells were washed three times with PBS buffer and centrifuged at 800 rpm (rounds per minute) for 5 minutes. The fluorescence was measured in Becton Dickinson FACSCalibur as described under 1.4. The computer tomography was performed as described under 1.5.1. The examinations were repeated two times. […]
An Orbita CT spiral was used: tube voltage 120 KV, effective mAs 550, time of imaging TI: 1.5, SL 0.75/0.75/4.5, FOV: 50 0/52, GT: 0.0, kernel: U70, window: intervertebral disc. 3D images were made with the InSpace Software (Syngo CT 2006G) (Siemens AG, Erlangen, Germany). […]

In the case of `O=C(O)c1cc(I)cc(I)c1I` [TIBA, 2,3,5-triiodobenzoic acid, reference compound], the solubility in water [1] is listed as “does not dissolve in water”, the “binding of annexin-V-Alexa 568 reagent (phosphatidyl serine) / cytotoxic effects” value [2] is listed as “did not result in binding; also recorded: did not appear to produce any cytotoxic effects” and the “solubility in pure PBS” value (Solubility) is listed as “insolubility”. The “CT signal density of cell pellets” value [3] was “only low signal density values; also recorded: did not result in any increase in signal density”.
